biological target: T1, hDGAT1 (Homo sapiens, UniProt O75907); assay: In-vitro DGAT1 assay (14C oleoyl CoA, hDGAT1 microsomes from Sf9 cells); details: at 1 μM
T1 sequence (O75907 1-488): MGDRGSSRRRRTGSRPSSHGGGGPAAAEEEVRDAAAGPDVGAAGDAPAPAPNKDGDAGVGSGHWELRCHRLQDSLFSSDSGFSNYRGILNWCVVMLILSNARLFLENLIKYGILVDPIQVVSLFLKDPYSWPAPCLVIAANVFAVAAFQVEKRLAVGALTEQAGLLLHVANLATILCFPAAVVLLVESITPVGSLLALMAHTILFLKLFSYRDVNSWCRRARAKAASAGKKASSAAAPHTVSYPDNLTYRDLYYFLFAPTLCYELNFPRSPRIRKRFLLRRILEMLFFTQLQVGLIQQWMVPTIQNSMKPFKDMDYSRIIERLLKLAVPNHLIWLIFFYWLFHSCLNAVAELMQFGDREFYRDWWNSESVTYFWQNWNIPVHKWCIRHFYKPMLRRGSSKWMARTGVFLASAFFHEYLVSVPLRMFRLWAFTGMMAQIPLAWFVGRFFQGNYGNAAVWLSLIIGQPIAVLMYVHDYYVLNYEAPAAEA

| % Inhibition of hDGAT1 | Compound |
| --- | --- |
| + (10-50% Inhibition) | CC(C)[C@@H](C(=O)O)N1Cc2cc(-c3ccc(NC(=S)Nc4ccc(C#N)cc4)cc3)ccc2C1=O [Example 269, (S)-2-(5-(4-(3-(4-Cyanophenyl)thioureido)phenyl)-1-oxoisoindolin-2-1)-3-methyl butanoic acid] |

same assay, conditions: read-out: % Inhibition of hDGAT1

| Compound | inhibition at 1 µM [%] |
| --- | --- |
| CC(C)[C@@H](C(=O)O)N1Cc2cc(-c3ccc(NC(=S)Nc4ccc(Cl)cc4)cc3)ccc2C1=O [Example 265, (S)-2-(5-(4-(3-(4-Chlorophenyl)thioureido)phenyl)-1-oxoisoindolin-2-yl)-3-methylbutanoic acid] | 10 to 50 |
| CC(C)[C@@H](C(=O)O)N1Cc2cc(-c3ccc(NC(=S)Nc4cccc(Cl)c4)cc3)ccc2C1=O [Example 267, (S)-2-(5-(4-(3-(3-Chlorophenyl)thioureido)phenyl)-1-oxoisoindolin-2-yl)-3-methylbutanoic acid] | 10 to 50 |
| CC(C)[C@@H](C(=O)O)N1Cc2cc(-c3ccc(NC(=S)Nc4ccccc4C(F)(F)F)cc3)ccc2C1=O [Example 271, (S)-3-Methyl-2-(1-oxo-5-(4-(3-(2-(trifluoromethyl)phenyl)thioureido)phenyl)isoindolin-2-yl)butanoic acid] | 10 to 50 |
| Cc1ccc(NC(=S)Nc2ccc(-c3ccc4c(c3)CN([C@H](C(=O)O)C(C)C)C4=O)cc2)cc1 [Example 275, (S)-3-Methyl-2-(1-oxo-5-(4-(3-p-tolylthioureido)phenyl)isoindolin-2-yl)butanoic acid] | 10 to 50 |
| COc1ccccc1NC(=S)Nc1ccc(-c2ccc3c(c2)CN([C@H](C(=O)O)C(C)C)C3=O)cc1 [Example 281, (S)-2-(5-(4-(3-(2-Methoxyphenyl)thioureido)phenyl)-1-oxoisoindolin-2-yl)-3-methylbutanoic acid] | > 50 |
| CC(C)[C@@H](C(=O)O)N1Cc2cc(-c3ccc(NC(=S)Nc4cccc(C(F)(F)F)c4)cc3)ccc2C1=O [Example 283, (S)-3-Methyl-2-(1-oxo-5-(4-(3-(3-(trifluoromethyl)phenyl)thioureido)phenyl)isoindolin-2-yl)butanoic acid] | > 50 |
| CC(C)[C@@H](C(=O)O)N1Cc2cc(-c3ccc(NS(=O)(=O)c4ccc(F)c(F)c4)cc3)ccc2C1=O [Example 289, (S)-2-(5-(4-(3,4-Difluorophenylsulfonamido)phenyl)-1-oxoisoindolin-2-yl)-3-methylbutanoic acid] | 10 to 50 |
| CC(C)[C@@H](C(=O)O)N1Cc2cc(-c3ccc(NS(=O)(=O)c4ccc(F)cc4F)cc3)ccc2C1=O [Example 291, (S)-2-(5-(4-(2,4-Difluorophenylsulfonamido)phenyl)-1-oxoisoindolin-2-yl)-3-methylbutanoic acid] | 10 to 50 |
| COc1ccc(S(=O)(=O)Nc2ccc(-c3ccc4c(c3)CN([C@H](C(=O)O)C(C)C)C4=O)cc2)cc1OC [Example 293, (S)-2-(5-(4-(3,4-Dimethoxyphenylsulfonamido)phenyl)-1-oxoisoindolin-2-yl)-3-methylbutanoic acid] | 10 to 50 |
| CC(C)[C@@H](C(=O)O)N1Cc2cc(-c3ccc(NS(=O)(=O)c4cccc(Cl)c4)cc3)ccc2C1=O [Example 295, (S)-2-(5-(4-(3-Chlorophenylsulfonamido)phenyl)-1-oxoisoindolin-2-yl)-3-methyl butanoic acid] | 10 to 50 |
| COc1ccc(S(=O)(=O)Nc2ccc(-c3ccc4c(c3)CN([C@H](C(=O)O)C(C)C)C4=O)cc2)cc1 [Example 297, (S)-2-(5-(4-(4-Methoxyphenylsulfonamido)phenyl)-1-oxoisoindolin-2-yl)-3-methylbutanoic acid] | 10 to 50 |
| CC(C)[C@@H](C(=O)O)N1Cc2cc(-c3ccc(NS(=O)(=O)c4ccc(C(F)(F)F)cc4)cc3)ccc2C1=O [Example 299, (S)-3-Methyl-2-(1-oxo-5-(4-(4-(trifluoromethyl)phenylsulfonamido)phenyl)isoindolin-2-yl)butanoic acid] | 10 to 50 |
| CC(C)[C@@H](C(=O)O)N1Cc2cc(-c3ccc(NS(=O)(=O)Cc4ccccc4)cc3)ccc2C1=O [Example 301, (S)-3-Methyl-2-(1-oxo-5-(4-(phenylmethylsulfonamido)phenyl)isoindolin-2-yl)butanoic acid] | 10 to 50 |
| CC(C)[C@@H](C(=O)O)N1Cc2cc(-c3ccc(NS(=O)(=O)C4CCCCC4)cc3)ccc2C1=O [Example 303, (S)-2-(5-(4-(Cyclohexanesulfonamido)phenyl)-1-oxoisoindolin-2-yl)-3-methylbutanoic acid] | 10 to 50 |
| CC(C)[C@@H](C(=O)O)N1Cc2cc(-c3ccc(NC(=O)c4ccccc4)cc3)ccc2C1=O [Example 305, (S)-2-(5-(4-Benzamidophenyl)-1-oxoisoindolin-2-yl)-3-methylbutanoic acid] | 10 to 50 |
| CC(C)[C@@H](C(=O)O)N1Cc2cc(-c3ccc(NC(=O)c4ccc(F)cc4)cc3)ccc2C1=O [Example 307, (S)-2-(5-(4-(4-Fluorobenzamido)phenyl)-1-oxoisoindolin-2-yl)-3-methylbutanoic acid] | 10 to 50 |
| CC(C)[C@@H](C(=O)O)N1Cc2cc(-c3ccc(NC(=O)c4ccc(C(F)(F)F)cc4)cc3)ccc2C1=O [Example 309, (S)-3-Methyl-2-(1-oxo-5-(4-(4-(trifluoromethyl)benzamido)phenyl)isoindolin-2-yl)butanoic acid] | 10 to 50 |
| COc1ccc(C(=O)Nc2ccc(-c3ccc4c(c3)CN([C@H](C(=O)O)C(C)C)C4=O)cc2)cc1 [Example 311, (S)-2-(5-(4-(4-Methoxybenzamido)phenyl)-1-oxoisoindolin-2-yl)-3-methyl butanoic acid] | 10 to 50 |
| CC(C)[C@@H](C(=O)O)N1Cc2cc(-c3ccc(NC(=O)c4cccc(F)c4)cc3)ccc2C1=O [Example 313, (S)-2-(5-(4-(3-Fluorobenzamido)phenyl)-1-oxoisoindolin-2-yl)-3-methylbutanoic acid] | 10 to 50 |
| CC(C)[C@@H](C(=O)O)N1Cc2cc(-c3ccc(NC(=O)c4cccc(Cl)c4)cc3)ccc2C1=O [Example 315, (S)-2-(5-(4-(3-Chlorobenzamido)phenyl)-1-oxoisoindolin-2-yl)-3-methylbutanoic acid] | 10 to 50 |

Continued, values first:

| inhibition at 1 µM [%] | Compound |
| --- | --- |
| 10 to 50 | Cc1ccc(C(=O)Nc2ccc(-c3ccc4c(c3)CN([C@H](C(=O)O)C(C)C)C4=O)cc2)cc1 [Example 319, (S)-3-Methyl-2-(5-(4-(4-methylbenzamido)phenyl)-1-oxoisoindolin-2-yl)butanoic acid] |
| > 50 | CC(C)[C@@H](C(=O)O)N1Cc2cc(-c3ccc(NC(=O)c4ccc(Cl)cc4)cc3)ccc2C1=O [Example 321, (S)-2-(5-(4-(4-Chlorobenzamido)phenyl)-1-oxoisoindolin-2-yl)-3-methylbutanoic acid] |
| 10 to 50 | CC(C)[C@@H](C(=O)O)N1Cc2cc(-c3ccc(NC(=O)c4ccc(C(C)(C)C)cc4)cc3)ccc2C1=O [Example 323, (S)-2-(5-(4-(4-tert-Butylbenzamido)phenyl)-1-oxoisoindolin-2-yl)-3-methyl butanoic acid] |
| 10 to 50 | CCCCCc1ccc(C(=O)Nc2ccc(-c3ccc4c(c3)CN([C@H](C(=O)O)C(C)C)C4=O)cc2)cc1 [Example 325, (S)-3-Methyl-2-(1-oxo-5-(4-(4-pentylbenzamido)phenyl)isoindolin-2-yl)butanoic acid] |
| > 50 | CC(C)[C@H](C(=O)O)N1Cc2ccc(-c3ccc(NC(=O)Nc4cccc(C(F)(F)F)c4)cc3)cc2C1=O [Example 331, (R)-3-Methyl-2-(1-oxo-6-(4-(3-(3-(trifluoromethyl)phenyl)ureido)phenyl)isoindolin-2-yl)butanoic acid] |
| 10 to 50 | O=C(O)CN1Cc2ccc(-c3ccc(NC(=O)Nc4cccc(C(F)(F)F)c4)cc3)cc2C1=O [Example 334, 2-(1-Oxo-6-(4-(3-(3-(trifluoromethyl)phenyl)ureido)phenyl)isoindolin-2-yl)acetic acid] |
| > 50 | C[C@@H](C(=O)O)N1Cc2ccc(-c3ccc(NC(=O)Nc4cccc(C(F)(F)F)c4)cc3)cc2C1=O [Example 337, (S)-2-(1-Oxo-6-(4-(3-(3-(trifluoromethyl)phenyl)ureido)phenyl)isoindolin-2-yl)propanoic acid] |
| 10 to 50 | CC(C)(C(=O)O)N1Cc2ccc(-c3ccc(NC(=O)Nc4cccc(C(F)(F)F)c4)cc3)cc2C1=O [Example 340, 2-Methyl-2-(1-oxo-6-(4-(3-(3-(trifluoromethyl)phenyl)ureido)phenyl)isoindolin-2-yl)propanoic acid] |
| 10 to 50 | O=C(Nc1ccc(-c2ccc3c(c2)C(=O)N(C2(C(=O)O)CCCC2)C3)cc1)Nc1cccc(C(F)(F)F)c1 [Example 343, 1-(1-Oxo-6-(4-(3-(3-(trifluoromethyl)phenyl)ureido)phenyl)isoindolin-2-yl)cyclopentanecarboxylic acid] |
| 10 to 50 | O=C(Nc1ccc(-c2ccc3c(c2)C(=O)N([C@H](C(=O)O)c2ccccc2)C3)cc1)Nc1cccc(C(F)(F)F)c1 [Example 346, (S)-2-(1-Oxo-6-(4-(3-(3-(trifluoromethyl)phenyl)ureido)phenyl)isoindolin-2-yl)-2-phenylacetic acid] |
| 10 to 50 | O=C(O)CCCN1Cc2ccc(-c3ccc(NC(=O)Nc4cccc(C(F)(F)F)c4)cc3)cc2C1=O [Example 349, 4-(1-Oxo-6-(4-(3-(3-(trifluoromethyl)phenyl)ureido)phenyl)isoindolin-2-yl)butanoic acid] |
